Test results taken from US8871208B2, “11-β-hydroxysteroid dehydrogenase type 1 (11β-HSD1) inhibitors and uses thereof” (AbbVie Inc., priority 2009, dated 2014).

Tests used:
Format in all cases: in vivo
[1] = system: Trabecular bone at Femoral Metaphysis; test: Mouse model of glucocorticoid-induced osteoporosis: femur histomorphometry; settings: mice, control diet
Text: (§1) Purpose: The purpose of this experiment was to determine if inhibiting 11β-HSD-1 in mice results in protection from prednisolone-induced bone loss over a 28-day period, while maintaining the same anti-inflammatory efficacy against lipopolysaccharide(LPS)-induced TNFα.
(§2) Animals: Female Swiss Webster mice from Charles River Laboratories (CFW mice) were used in this study. Mice were 10 weeks old at the start of the study. Two identical prednisolone dose responses were run with a vehicle control (n=12), 5, 1.5, and 0.5 mg/kg dosed for 28 days (n=8 each), and 1.5 mg/kg dosed for 27 days (n=8, to determine if prednisolone needed to be on board to affect tumor necrosis factor-alpha(TNFα), procollagen type 1 N-terminal propeptide(P1NP), and Osteocalcin). […] The total number of animals used was 88.
(§3) Experimental Design: All animals were placed on the control diet (Research Diets Rodent Diet with 60 kcal % Fat: D12492i) upon arrival. […] Also on this day, animals were weighed for baselines and ear-tagged for identification. On day 1 of the study, all animals were injected intraperitoneally (i.p.) with 10 mg/kg of calcein (Sigma #C0875) in 2% sodium bicarbonate (Sigma #S6014, dissolved in deionized water). […] On day 27, 4 animals from each vehicle control group were challenged with 5 mg/kg of 11-dehydrocorticosterone (11-DHC [Steraloids #Q3690-000]) p.o., and plasma was collected 30 minutes later for corticosterone analysis by mass spec. […] Thirty minutes later, all groups were challenged with 0.1 mg/kg of LPS (Sigma #L4130) to induce TNFα. […] Right leg bones, left leg bones, and the spinal columns of all mice were collected and stored as follows:
Left leg bones were removed, cleaned, and cut identically to the right leg bones. However, left legs were separated at the knee joint by carefully teasing apart with a scalpel.
Femurs were fixed in 4% paraformaldehyde for 48 hours, and transferred to 30% sucrose for 24 hours before embedding in a CMC (carboxymethylcellulose) block. Blocks were frozen in liquid nitrogen-cooled hexanes (−60° C. or colder) for 3-5 minutes, and stored at −80° C. Femurs were then sectioned on a cryomicrotome.
Bone was measured from 8-10 fields per femur, with each field being 400×500 microns in size. All dynamic measurement calculations were made from scoring the second and third fluorochrome labels, which were administered 11 days apart. OsteoMeasure software was used to obtain all values.
Bone formation rate/bone volume (BFR/BV) refers to the volume of new bone formed per unit of time, and is measured as a percent per day. BFR is the most significant measure of bone formation.
Mineral apposition rate (MAR) refers to the distance between two fluorochrome labels divided by the number of days between label administration, and is indicative of osteoblastic activity.
Double labeled surface/bone surface (dLS/BS) refers to the percentage of trabecular bone surface which is double-labeled, and is another readout indicative of bone formation.

plasma osteocalcin [2] = test: Study A: prednisolone-induced osteocalcin reduction in rats; settings: prednisolone 10 mg/kg po, 4 hour time point
Text: Prednisolone (active GC) administration to rats induces a variety of acute physiological effects including an increase in liver tyrosine amino transferase, increase in serum free fatty acids, increase in liver glycogen levels, hyperglycemia, decrease in osteocalcin, among others. Osteocalcin is of particular interest since a decrease in this hormone leads to decreased bone formation, increasing the potential for osteoporosis. Administration of an 11β-HSD-1 inhibitor would be expected to reduce local reactivation of prednisolone from prednisone in the bone or relevant tissue, and thereby reduce loss of osteocalin levels. […] Prednisone is reactivated, however, to prednisolone in the liver, bone and other tissues where 11β-HSD-1 is expressed. By blocking this reactivation through the use of an 11β-HSD-1 inhibitor, the exposure of active glucocorticoid in bone would be minimized. […] To validate this hypothesis, effects of the 11β-HSD-1 inhibitor (compound A) on prednisolone-induced osteocalcin reduction was evaluated in rats using two separate protocols as indicated in the Table 8 below.
In Study A, rats were pre-dosed with Compound A at 30 mg/kg 1 hour prior to administration with the active glucocorticoid, prednisolone, at 10 mg/kg, po. At 2 and 4 hours after dosing prednisolone, rats were sacrificed, and blood evaluated for levels of osteocalcin.

Osteocalcin = test: Mouse model of glucocorticoid-induced osteoporosis: plasma osteocalcin; settings: mice, control diet
Text: as §1, §2, §3
Osteocalcin was measured using the Millipore Milliplex Mouse Osteocalcin Single-Plex Kit. The protocol was followed exactly as outlined in the kit. Samples were read on a BioRad Bio-Plex System, model # Luminex 100 and Bio-Plex Manager 4.1.1 software.

[3] = system: P1NP (N-terminal propeptide of type I procollagen); test: Mouse model of glucocorticoid-induced osteoporosis: plasma P1NP; settings: mice, control diet
Text: as §1, §2, §3
N-terminal propeptide of type I procollagen (PINP) was measured using the Rat/Mouse PINP EIA kit from Immunodiagnostic Systems. The protocol was followed as outlined in the kit, except for that sample dilutions were made in a separate plate instead of directly in the ELISA plate. Samples were read using a Molecular Devices Spectra Max 190 plate reader and Soft Max Pro 5.2 software.

TNFα = test: Mouse model of glucocorticoid-induced osteoporosis: LPS-induced TNFα; settings: mice, LPS 0.1 mg/kg challenge, control diet
Text: as §1, §2, §3
TNFα was measured using the Mouse […] Quantikine ELISA kit from R&D Systems. The protocol was followed as outlined in the kit. Samples were read using a Molecular Devices Spectra Max 250 plate reader and Soft Max Pro 4.8 software.

plasma osteocalcin [4] = test: Study B: prednisone-induced osteocalcin reduction in rats; settings: vehicle pre-treatment, prednisone 10 mg/kg po, 4 hours later
Text: Prednisolone (active GC) administration to rats induces a variety of acute physiological effects including an increase in liver tyrosine amino transferase, increase in serum free fatty acids, increase in liver glycogen levels, hyperglycemia, decrease in osteocalcin, among others. Osteocalcin is of particular interest since a decrease in this hormone leads to decreased bone formation, increasing the potential for osteoporosis. Administration of an 11β-HSD-1 inhibitor would be expected to reduce local reactivation of prednisolone from prednisone in the bone or relevant tissue, and thereby reduce loss of osteocalin levels. […] Prednisone is reactivated, however, to prednisolone in the liver, bone and other tissues where 11β-HSD-1 is expressed. By blocking this reactivation through the use of an 11β-HSD-1 inhibitor, the exposure of active glucocorticoid in bone would be minimized. This example would pertain to normal older individuals as well where cortisol levels increase with age, and likely contribute to age-dependent osteoporosis. This would be an acute study design. To validate this hypothesis, effects of the 11β-HSD-1 inhibitor (compound A) on prednisolone-induced osteocalcin reduction was evaluated in rats using two separate protocols as indicated in the Table 8 below.

Row | Compound | % Increase in dLS/BS, (−) Inhibitor ([1]; prednisolone 0.5 mg/kg) | % Inhibition of BFR/BV, (−) Inhibitor ([1]; prednisolone 0.5 mg/kg) | % Inhibition of MAR, (−) Inhibitor ([1]; prednisolone 0.5 mg/kg) [%] | % Increase in dLS/BS, (−) Inhibitor ([1]; prednisolone 5 mg/kg) | % Inhibition of BFR/BV, (−) Inhibitor ([1]; prednisolone 5 mg/kg) [%] | % Inhibition of MAR, (−) Inhibitor ([1]; prednisolone 5 mg/kg) [%] | plasma osteocalcin after prednisolone (plasma osteocalcin [2]) | % Inhibition of Osteocalcin, (−) Inhibitor (Osteocalcin; prednisolone 0.5 mg/kg) [%] | % Inhibition of Osteocalcin, (−) Inhibitor (Osteocalcin; prednisolone 5 mg/kg) [%] | % Inhibition of P1NP, (−) Inhibitor ([3]; prednisolone 0.5 mg/kg p.o. daily 28 days) [%] | % Inhibition of P1NP, (−) Inhibitor ([3]; prednisolone 5 mg/kg p.o. daily 28 days) [%] | % Inhibition of TNFα, (−) Inhibitor (TNFα; prednisolone 0.5 mg/kg) [%] | % Inhibition of TNFα, (−) Inhibitor (TNFα; prednisolone 5 mg/kg) [%] | % Inhibition of TNFα, (−) Inhibitor (TNFα; prednisolone […]) [%] | plasma osteocalcin after prednisone challenge (plasma osteocalcin [4])
1 | C[C@]12C=CC(=O)C=C1CC[C@@H]1[C@@H]2[C@@H](O)C[C@@]2(C)[C@H]1CC[C@]2(O)C(=O)CO [Prednisolone, prednisolone, reference compound] | No Increase | No Inhibition | 33 | No Increase | 27 | 52 | significant reductions in plasma osteocalcin | 10 | 45 | 33 | 51 | 80 | 98 | 95 | –
2 | C[C@]12C=CC(=O)C=C1CC[C@@H]1[C@@H]2C(=O)C[C@@]2(C)[C@H]1CC[C@]2(O)C(=O)CO [prednisone] | – | – | – | – | – | – | – | – | – | – | – | – | – | – | significant reduction in plasma osteocalcin
